Experimental findings from US7199126B2, “Compositions and treatments for inhibiting kinase and/or HMG-CoA reductase” (Pharmix Corporation, priority 2004, dated 2007) are described below.

The assay concerns the target T1, human recombinant p38α protein kinase (Homo sapiens, UniProt Q16539).
T1 construct: purchased UBI (Upstate Biotechnology Inc.) 14–251; host or cells: E. coli
In words: Human p38α MAP kinase inhibition assay (cell-free, phosphorylation of myelin basic protein). The class given is biochemical. The protocol: Candidate compound and/or vehicle was preincubated with 0.075 μg/mL enzyme in modified HEPES buffer pH 7.4 at 25° C. for 15 minutes. The reaction was initiated by addition of 100 μM ATP and allowed to proceed for another 60 minutes. The reaction was terminated by aspirating the solution. Phosphorylated MBP was detected by incubation with a mouse monoclonal IgG2a anti-phosphoMBP antibody. Bound anti-phosphoMBP antibody was quantitated by incubation with a HRP conjugated goat anti-mouse IgG.

SMILES strings stand for the structures.

T1 sequence (Q16539 whole entry): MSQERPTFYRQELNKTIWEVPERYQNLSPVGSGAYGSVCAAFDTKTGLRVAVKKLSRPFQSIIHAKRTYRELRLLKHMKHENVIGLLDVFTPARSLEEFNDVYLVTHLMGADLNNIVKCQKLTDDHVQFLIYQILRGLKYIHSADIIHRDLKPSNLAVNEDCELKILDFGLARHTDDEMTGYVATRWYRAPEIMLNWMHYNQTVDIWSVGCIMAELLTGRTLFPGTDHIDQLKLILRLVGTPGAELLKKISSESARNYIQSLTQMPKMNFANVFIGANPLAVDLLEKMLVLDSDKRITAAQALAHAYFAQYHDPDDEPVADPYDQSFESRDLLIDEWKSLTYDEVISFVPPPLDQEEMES

`CCC(C)(C)C(=O)O[C@H]1C[C@@H](C)C=C2C=C[C@H](C)[C@H](CC[C@@H]3C[C@@H](O)CC(=O)O3)[C@H]21` [Simvastatin sodium]: the concentration for half-maximal inhibition (IC50) (commonly the point on the concentration scale where inhibition reaches its midpoint) is > 100 µM.
